Source: patent US20190289849A1, “Novel Plant Growth Regulators and Methods of Using Same” (Duke University, priority 2016, published 2019)
“Also recorded” adds a separate entry of the source.

How the values were obtained:
Arabidopsis thaliana [1] = test: Lateral root capacity (emerged lateral roots after removal of the primary root apical meristem); assay type: in vivo; conditions: for rescue of D15 inhibition of lateral root branching: D15-treated plants, apocarotenoid concentration varied for maximum rescue; for lateral root capacity / branching in combination with D15 (screen): 30 μM D15 plus apocarotenoid, normalized to D15 treatment
Arabidopsis = test: High concentration (10 mM) apocarotenoid effects on plant growth; assay type: in vivo; conditions: for herbicidal effect when sprayed on plants / method of lethality (phenotype): 10 mM per FIG. 11; for lateral root growth / root length / shoot mass: 10 mM
Method: FIG. 10 illustrates the effect of high doses of β-cyclocitral and DHAD on root growth. A) The effect of adding small volumes of 10 mM apocarotenoids daily to either the shoots, root tip, or the middle of the root. B) A confocal image of a healthy root stained with propidium iodide, which marks dead cells. C) A root treated with 10 mM β-cyclocitral applied to the tip of the root.
FIG. 11 illustrates the effect of 10 mM apocarotenoids on plant development. A) The percent change in lateral root capacity, normalized to control plants. Abbreviations: dihydro-β-ionone (DHβI), dimethyl-β-cyclocitral (DMβC). β-cyclocitral (β-cyc), pseudoionone (PI), and dihydroactinidiolide (DHAD). B) Confocal image of a control root stained with propidium iodide. C) Image of a root treated with safranal. D) Images of leaves form a control plant. E) Images of leaves from a plant treated with pseudoionone.
At high concentrations (10 mM) of β-cyclocitral or DHAD, root length, shoot mass, and lateral root growth were inhibited. […] In one embodiment, safranal may be detrimental to Arabidopsis at concentrations as low as 500 μM.

lateral root primordia = test: Lateral root primordia counts with WOX5 (stage 1) and EN7 (stage 3) markers, and primordia emergence; assay type: in vivo, Arabidopsis thaliana
Method: All seeds were in the Columbia-0 background. Seeds were sterilized with chlorine gas, incubated in 4° C. water for 2 days, and plated on 1% (wt/vol) Murashige and Skoog (1% MS) media with 1% agar. They were exposed to 100-130 μmol/(m^2s^1) illumination and grown vertically under long-day conditions at 22° C. Plants were analyzed at 7 days after stratification (das), unless noted otherwise. D15-treated media was made using D15 (N-(4-fluorobenzyl)-methoxycinnamic hydroxamic acid) synthesized by LeadGen Labs, LLC solubilized in DMSO. 100 mM D15 stock solution was diluted directly into 1% MS media for final concentrations ranging from 1 μM to 100 μM. For initial experiments testing the ability of apocarotenoids to rescue D15, plants were seeded on 1% MS media containing 30 μM D15 and 100 nM apocarotenoid (diluted from 1 mM stock solutions dissolved in DMSO). For subsequent experiments characterizing the effect of β-cyclocitral, plants were exposed to volatile analytical grade β-cyclocitral (≥97%, Sigma Aldrich) using 100×15 mm partitioned petri dishes. One side of the partition was filled with 25 μM β-cyclocitral diluted in 1% MS media. Seeds were plated on the other side of the partition, on 1% MS media. […] For norflurazone treatments, norflurazone (Chem Service) dissolved in DMSO was diluted to a final concentration of 500 nM norflurazone in 1% MS media. For all experiments, including those performed on tomatoes and rice, plants were never exposed to DMSO concentrations that exceeded 0.1%.
(§1) To measure lateral root capacity, the primary root apical meristem of each seedling was sterilely excised at 7 days. The plants were given 3 days to grow out lateral roots, and then each emerged lateral root was counted using a dissection microscope, as described previously (Van Norman et al., Proceedings of the National Academy of Sciences of the United States of America, 2014. 111(13): p. E1300-E1309). Luciferase activity was measured as previously described, using exposure times of 7 min (Moreno-Risueno, M. A., et al., Science, 2010. 329(5997): p. 1306-1311). WOX5^+ and EN7^+ primordia were counted using a stereo zoom microscope (Zeiss). Lateral and primary root lengths for Arabidopsis thaliana and tomato were measured using ImageJ (National Institutes of Health) software. 3D images of rice root architecture were captured using a 360° revolving platform and these images were analyzed using GiA Roots (www.giaroots.org), as described previously by Topp (2013). Primary root lengths were determined by dissecting the root and measuring the length with a ruler. Shoot mass was measured after removing the shoots and drying them for 10 days at 60° C.
First, the effect of D15 on lateral root branching was characterized and is shown FIG. 1. […] NCEDs are a sub-group of CCDs that cleave carotenoids at the 11, 12′ positions. […] By titrating D15 to its IC50 concentration (30 μM), the lateral root capacity was measured with enhanced sensitivity (FIGS. 1A-B). To determine how D15 inhibits lateral root branching, its effect on the lateral root clock, which establishes the sites of lateral root initiation, was examined. To test this, a synthetic promoter driving luciferase (pDR5:LUC) was utilized. In control roots, luminescence intensity oscillates every six hours (FIG. 1C). Only the root cells that experience the peak oscillation intensity become competent to form lateral root pre-branch sites. […] To further characterize the effect of D15 on lateral root initiation, its effect on two stages of primordia development was determined, as marked by WOX5 (pWOX5:GFP) and EN7 (pEN7:GAL4; UAS:H2A-GFP). These lines allow visualization of the QC at stage 1 of primordia development and the endodermis at stage 3 of development, respectively. […] This further supports the lateral root clock evidence that D15 inhibits the initiation of lateral root primordia.

Heinz tomatoes = test: Tomato primary and lateral root growth; assay type: in vivo
Method: as §1, with “Heinz tomatoes were used for all tomato experiments. Seeds were sterilized using 40% liquid bleach for 30 min, then plated on 1% MS media in 120×120×17 mm square petri dishes. Seeds were kept in the dark at room temperature for 3 days, and then exposed to 100-130 μmol/(m^2s^1) illumination and grown vertically under long-day conditions at 22° C. For treating tomatoes, β-cyclocitral, norflurazone, and D15 were added directly to the media, at the concentrations described in the figures. Norflurazone was diluted to a final concentration of 1 μM in media. Tomato phenotypes were analyzed at 6 das. To measure” for “To measure”, “111(13): p. […]-[…]). Luciferase activity” for “111(13): p. E1300-E1309). Luciferase activity”

Arabidopsis thaliana [2] = test: Primary and lateral root growth on exposure to volatile β-cyclocitral; assay type: in vivo
[3] = system: Azucena (tropical japonica) rice; test: Rice root system architecture and shoot weight; assay type: in vivo
Method: as §1, with “Azucena (tropical japonica) seeds were dehulled and germinated in the dark for 3 days at 30° C. Germinated seeds were transferred to Yoshida's nutrient solution, solidified with 0.25% gelzan (Caisson Laboratories, Inc.), in 2 L glass cylinders, as described previously (Topp, C. N., et al., Proceedings of the National Academy of Sciences of the United States of America, 2013. 110(18): p. […]-[…].). Rice roots were imaged at 12 das. To measure” for “To measure”, “111(13): p. […]-[…]). Luciferase activity” for “111(13): p. E1300-E1309). Luciferase activity”

lateral root clock = test: Lateral root clock luminescence (pDR5:LUC) and pre-branch sites; assay type: in vivo, Arabidopsis thaliana
Method: as §1
First, the effect of D15 on lateral root branching was characterized and is shown FIG. 1. […] By titrating D15 to its IC50 concentration (30 μM), the lateral root capacity was measured with enhanced sensitivity (FIGS. 1A-B). […]

LeCCD1 = conditions: in vitro; cited from earlier work
[4] = IC50 concentration of D15 (30 μM)

## CC1=C(C=O)C(C)CCC1 (stereo not shown)
Arabidopsis thaliana [1]
  rescue of D15 inhibition of lateral root branching: did not have the capacity to rescue
Arabidopsis
  herbicidal effect when sprayed on plants: herbicidal effects

## CC1=CC(=O)CC(C)(C)[C@@]1(O)/C=C/C(C)=C\C(=O)O [ABA, abscisic acid, reference compound]
Arabidopsis thaliana [1]
  lateral root capacity / branching in combination with D15 (screen): further decreased

## CC1(C)CCC[C@@]2(C)OC(=O)C=C12 [DHAD, dihydroactinidiolide]
Arabidopsis thaliana [1]
  lateral root capacity / branching in combination with D15 (screen): increase lateral root branching
  rescue of D15 inhibition of lateral root branching: only partially rescue
Arabidopsis
  lateral root growth: inhibited
  root length: inhibited
  shoot mass: inhibited

## CC1=C[C@H](O/C=C2/C(=O)O[C@@H]3c4ccccc4C[C@H]23)OC1=O [GR24, reference compound]
Arabidopsis thaliana [1]
  lateral root capacity / branching in combination with D15 (screen): further decreased

## CNc1cnn(-c2cccc(C(F)(F)F)c2)c(=O)c1Cl [norflurazone, 4-chloro-5-(methylamino)-2-(α,α,α-trifluoro-m-tolyl)-3(2H)-pyridazinone]
Lateral root primordia; 500 nM norflurazone in media
  effect on lateral root development (primordia initiation, maintenance, development, emergence): blocks normal lateral root development; also recorded: blocked primordia initiation as well as maintenance, post-initiation development, and emergence
Heinz tomatoes; tomato, 1 μM norflurazone in media
  primary and lateral root growth: decreased

## CC(=O)/C=C/C=C(\C)CCC=C(C)C [pseudoionone]
Arabidopsis
  herbicidal effect when sprayed on plants: herbicidal effects
  method of lethality (phenotype): caused plants to become chlorotic

## CC1=C(C=O)C(C)(C)CC=C1 [safranal]
Arabidopsis
  herbicidal effect when sprayed on plants: herbicidal effects
  method of lethality (phenotype): changed root cell morphology

## CC1=C(C=O)C(C)(C)CCC1 [β-cyclocitral]
Arabidopsis thaliana [1]
  lateral root capacity / branching in combination with D15 (screen): increase lateral root branching
  rescue of D15 inhibition of lateral root branching: fully rescue
Lateral root primordia; in D15-treated plants
  WOX5+ primordia initiation: did not rescue
Lateral root primordia; in the absence of D15
  WOX5+ sites: did not increase
Lateral root primordia; in the absence of D15, p=0.12
  number of EN7+ primordia: did increase
Lateral root primordia; in the presence of D15, p=0.02
  number of EN7+ primordia: did increase
Arabidopsis thaliana [2]; exogenous volatile application, in the presence and absence of D15
  primary and lateral root emergence: increased
Arabidopsis thaliana [2]; with or without co-treatment of D15
  lateral root length: increases
Heinz tomatoes; tomato, D15 plus exogenous β-cyclocitral
  rescue of D15 primary root inhibition: could not be rescued
Heinz tomatoes; tomato, dose-dependent
  lateral root length: significant increase
Heinz tomatoes; tomato, norflurazone plus β-cyclocitral
  rescue of primary root growth in norflurazone-treated plants: fully rescued
Heinz tomatoes; tomato, uninhibited plants
  primary root length: significantly increased
[3]; Azucena rice
  crown root growth: dramatically increasing
  primary root growth: dramatically increasing
[3]; Azucena rice, 10 μM β-cyclocitral per FIG. 8
  root system depth and compactness vs control plants: deeper and more compact
[3]; rice
  lateral root length: decreased
  shoot growth: remained unchanged
[3]; rice plants
  dry shoot weight: does not significantly change
Arabidopsis
  lateral root growth: inhibited
  root length: inhibited
  shoot mass: inhibited
Arabidopsis; 10 mM applied only to the root tip
  root growth: sufficient to reduce root growth

## CC(=O)/C=C/C1=C(C)CCCC1(C)C [β-ionone]
Arabidopsis thaliana [1]
  rescue of D15 inhibition of lateral root branching: did not have the capacity to rescue

## N-(4-fluorobenzyl)-methoxycinnamic hydroxamic acid [D15]
Arabidopsis thaliana [1]; 100 μM D15
  lateral root capacity, maximum effect: completely inhibited
Arabidopsis thaliana [1]; D15 in 1% MS media, read-out: IC50 concentration for lateral root capacity
  IC50: 30 µM
Lateral root clock; D15-treated roots (100 μM per FIG. 1)
  peak oscillation intensity of pDR5:LUC luminescence vs control roots: significantly lower
Lateral root clock; D15-treated roots, p=0.009
  number of pre-branch sites: significantly decreased
Lateral root primordia; [4]
  decrease in number of stage 1 (WOX5) lateral root primordia: approximately 50%
  decrease in number of stage 3 (EN7) lateral root primordia: approximately 50%
Lateral root primordia; in vivo
  emergence of lateral root primordia compared to control roots: did not inhibit
Heinz tomatoes; Heinz tomatoes, D15 treatment
  lateral root length: does not decrease
Heinz tomatoes; tomato, D15 treatment
  primary root length: decreased
Heinz tomatoes; tomato, p=0.99
  lateral root branching: did not have a negative effect
LeCCD1
  enzyme preference, LeCCD1 compared to LeNCED1: preferentially targets LeCCD1
